Key:
physchem [1] = test: physchem
Description: Compound was evaluated for its acid dissociation constant

Acetylcholinesterase = Acetylcholinesterase (Homo sapiens, UniProt P22303)
Description: In vitro inhibition of acetylcholinesterase isolated from human erythrocytes.

physchem [2] = conditions: octanol/water
Description: Partition coefficient (logP)

physchem [3] = conditions: buffer, pH 7.5
Description: Lipophilic dissociation constant is determined as a measure of partitioning of neutral molecules at pH 7.5

Sequence of Acetylcholinesterase (P22303 whole entry): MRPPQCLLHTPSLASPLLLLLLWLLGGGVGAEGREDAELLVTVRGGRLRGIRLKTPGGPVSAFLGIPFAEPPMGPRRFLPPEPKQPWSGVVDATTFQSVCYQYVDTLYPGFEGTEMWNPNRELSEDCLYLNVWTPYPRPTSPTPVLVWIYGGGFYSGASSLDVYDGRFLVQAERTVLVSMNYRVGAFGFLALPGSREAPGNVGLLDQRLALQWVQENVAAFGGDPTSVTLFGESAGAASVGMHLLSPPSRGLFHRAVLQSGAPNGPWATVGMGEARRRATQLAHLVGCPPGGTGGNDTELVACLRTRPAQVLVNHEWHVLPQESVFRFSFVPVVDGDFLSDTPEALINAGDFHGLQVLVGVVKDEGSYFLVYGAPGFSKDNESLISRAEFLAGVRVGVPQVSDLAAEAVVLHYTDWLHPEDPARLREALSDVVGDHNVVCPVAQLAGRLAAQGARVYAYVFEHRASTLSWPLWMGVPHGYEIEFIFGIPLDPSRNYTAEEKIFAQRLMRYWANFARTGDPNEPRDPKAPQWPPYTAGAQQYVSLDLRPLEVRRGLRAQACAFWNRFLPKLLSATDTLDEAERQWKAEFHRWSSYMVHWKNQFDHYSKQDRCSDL

| SMILES | pKa (physchem [1]) | IC50 (Acetylcholinesterase) [nM] | logP (physchem [2]) | logD (physchem [3]) |
| --- | --- | --- | --- | --- |
| Nc1c2c(nc3cccc(Cl)c13)CCCC2 | 9.3 | 39 |  |  |
| Nc1c2c(nc3ncccc13)OCCC2 | 6.4 | 6260 |  |  |
| Nc1c2c(nc3ncccc13)CCCC2 | 8.8 | 429 |  |  |
| Cc1cccc2nc3c(c(N)c12)CCCO3 | 8.06 | 150 | 2.28 | 1.63 |
| Nc1c2c(nc3ccc(Cl)cc13)CCCC2 |  | 3680 |  |  |
| Nc1c2c(nc3cnccc13)CCCC2 | 7.3 | 2600 |  |  |
| Nc1c2c(nc3ccccc13)OCCC2 | 7.8 | 266 | 1.86 | 1.37 |
| COc1cccc2nc3c(c(N)c12)CCCC3 | 10.4 | 615 |  |  |
| Nc1c2c(nc3c1CCCO3)CCC2 | 7.8 | 1120 |  |  |
| Nc1c2c(nc3cccc(F)c13)OCCC2 | 6.9 | 335 |  |  |
| Cc1cccc2nc3c(c(N)c12)CCCC3 | 9.98 | 99 |  |  |
| Nc1c2c(nc3ccc(Cl)cc13)OCCC2 |  | 9810 |  |  |
| Nc1c2c(nc3c1CCC3)CCCC2 [IPIDACRINE] | 10.2 |  |  |  |
| Nc1c2c(nc3c1CCCC3)CCCC2 [OCTAAMINOACRIDINE] | 11 | 360 |  |  |
| Nc1c2c(nc3cnccc13)OCCC2 | 5.6 | 42 |  |  |
| Nc1c2c(nc3cccc(F)c13)CCCC2 | 9.1 | 78 |  |  |
| COc1cccc2nc3c(c(N)c12)CCCO3 | 8.11 | 606 |  |  |
| Nc1c2c(nc3c1CCCO3)CCCC2 | 7.8 | 455 |  |  |
| Nc1c2c(nc3cccc(Cl)c13)OCCC2 | 6.6 | 313 |  |  |
